Like-named read-outs stand apart in the source and are kept apart here.

The target of one assay is T1, KDM5B (Homo sapiens, UniProt Q9UGL1).
T1 construct: Full length of KDM5B and KDM4C protein were purchased from Active Motif; purchased Active Motif 31832
Briefly: biochemical. A digest of the protocol: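 KDM5B (0.5 nM final) was preincubated with compound for 15 min at room temperature, then reacted with biotinylated peptide (3 nM final) for 25 min at room temperature.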

A further assay has as its target T2, KDM4C (Homo sapiens, UniProt Q9H3R0).
T2 construct: Full length of KDM5B and KDM4C protein were purchased from Active Motif; purchased Active Motif 31858
T2 sequence (Q9H3R0 1-1056): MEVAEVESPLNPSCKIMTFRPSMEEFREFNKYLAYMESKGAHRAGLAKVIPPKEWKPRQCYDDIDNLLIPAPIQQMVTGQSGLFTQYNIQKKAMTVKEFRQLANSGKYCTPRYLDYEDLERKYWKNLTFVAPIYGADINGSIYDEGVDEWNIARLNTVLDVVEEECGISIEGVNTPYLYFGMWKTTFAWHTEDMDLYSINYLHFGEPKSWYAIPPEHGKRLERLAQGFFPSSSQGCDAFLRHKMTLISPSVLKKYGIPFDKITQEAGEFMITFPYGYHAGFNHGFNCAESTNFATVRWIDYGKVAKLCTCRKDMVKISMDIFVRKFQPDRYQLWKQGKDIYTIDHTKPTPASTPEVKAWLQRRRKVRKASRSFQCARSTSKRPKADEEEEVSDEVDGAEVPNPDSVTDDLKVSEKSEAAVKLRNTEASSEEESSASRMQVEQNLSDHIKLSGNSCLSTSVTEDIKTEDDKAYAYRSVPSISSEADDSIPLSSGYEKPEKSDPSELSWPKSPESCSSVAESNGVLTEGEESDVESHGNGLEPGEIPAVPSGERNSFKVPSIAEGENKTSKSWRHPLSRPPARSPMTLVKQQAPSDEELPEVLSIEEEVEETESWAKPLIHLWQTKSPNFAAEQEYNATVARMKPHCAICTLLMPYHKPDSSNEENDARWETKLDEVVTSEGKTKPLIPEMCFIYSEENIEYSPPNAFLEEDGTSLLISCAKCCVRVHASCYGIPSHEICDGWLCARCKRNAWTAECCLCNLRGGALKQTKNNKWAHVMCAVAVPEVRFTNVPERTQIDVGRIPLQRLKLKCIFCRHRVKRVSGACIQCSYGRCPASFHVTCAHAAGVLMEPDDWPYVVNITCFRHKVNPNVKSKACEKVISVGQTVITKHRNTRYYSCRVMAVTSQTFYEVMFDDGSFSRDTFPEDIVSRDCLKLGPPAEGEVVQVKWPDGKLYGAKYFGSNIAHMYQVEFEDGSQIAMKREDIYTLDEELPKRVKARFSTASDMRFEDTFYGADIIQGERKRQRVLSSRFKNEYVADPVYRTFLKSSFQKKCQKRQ
Kind of assay: KDM4C AlphaScreen assay. The format is biochemical. As to conditions: AlphaScreen; full length KDM4C 0.2 nM; biotinylated H3K9Me3 peptide 3 nM; 30 minutes at room temperature. A digest of the protocol:
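Full-length KDM4C (0.2 nM final) was preincubated 15 min at RT with compound in HEPES pH 7.4 with Tween-20, BSA and TCEP. The reaction ran 30 min at RT after adding biotinylated peptide (3 nM final) in buffer with Fe(II), α-ketoglutarate and ascorbate. EDTA-containing AlphaScreen beads stopped it; IC50 was curve-fitted.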

Setting [1] is: AlphaScreen, full length KDM5B 0.5 nM, biotinylated H3K4Me3 peptide 3 nM, 25 minutes at room temperature, read-out: KDM5B (IC50).

T1 sequence (Q9UGL1 whole entry): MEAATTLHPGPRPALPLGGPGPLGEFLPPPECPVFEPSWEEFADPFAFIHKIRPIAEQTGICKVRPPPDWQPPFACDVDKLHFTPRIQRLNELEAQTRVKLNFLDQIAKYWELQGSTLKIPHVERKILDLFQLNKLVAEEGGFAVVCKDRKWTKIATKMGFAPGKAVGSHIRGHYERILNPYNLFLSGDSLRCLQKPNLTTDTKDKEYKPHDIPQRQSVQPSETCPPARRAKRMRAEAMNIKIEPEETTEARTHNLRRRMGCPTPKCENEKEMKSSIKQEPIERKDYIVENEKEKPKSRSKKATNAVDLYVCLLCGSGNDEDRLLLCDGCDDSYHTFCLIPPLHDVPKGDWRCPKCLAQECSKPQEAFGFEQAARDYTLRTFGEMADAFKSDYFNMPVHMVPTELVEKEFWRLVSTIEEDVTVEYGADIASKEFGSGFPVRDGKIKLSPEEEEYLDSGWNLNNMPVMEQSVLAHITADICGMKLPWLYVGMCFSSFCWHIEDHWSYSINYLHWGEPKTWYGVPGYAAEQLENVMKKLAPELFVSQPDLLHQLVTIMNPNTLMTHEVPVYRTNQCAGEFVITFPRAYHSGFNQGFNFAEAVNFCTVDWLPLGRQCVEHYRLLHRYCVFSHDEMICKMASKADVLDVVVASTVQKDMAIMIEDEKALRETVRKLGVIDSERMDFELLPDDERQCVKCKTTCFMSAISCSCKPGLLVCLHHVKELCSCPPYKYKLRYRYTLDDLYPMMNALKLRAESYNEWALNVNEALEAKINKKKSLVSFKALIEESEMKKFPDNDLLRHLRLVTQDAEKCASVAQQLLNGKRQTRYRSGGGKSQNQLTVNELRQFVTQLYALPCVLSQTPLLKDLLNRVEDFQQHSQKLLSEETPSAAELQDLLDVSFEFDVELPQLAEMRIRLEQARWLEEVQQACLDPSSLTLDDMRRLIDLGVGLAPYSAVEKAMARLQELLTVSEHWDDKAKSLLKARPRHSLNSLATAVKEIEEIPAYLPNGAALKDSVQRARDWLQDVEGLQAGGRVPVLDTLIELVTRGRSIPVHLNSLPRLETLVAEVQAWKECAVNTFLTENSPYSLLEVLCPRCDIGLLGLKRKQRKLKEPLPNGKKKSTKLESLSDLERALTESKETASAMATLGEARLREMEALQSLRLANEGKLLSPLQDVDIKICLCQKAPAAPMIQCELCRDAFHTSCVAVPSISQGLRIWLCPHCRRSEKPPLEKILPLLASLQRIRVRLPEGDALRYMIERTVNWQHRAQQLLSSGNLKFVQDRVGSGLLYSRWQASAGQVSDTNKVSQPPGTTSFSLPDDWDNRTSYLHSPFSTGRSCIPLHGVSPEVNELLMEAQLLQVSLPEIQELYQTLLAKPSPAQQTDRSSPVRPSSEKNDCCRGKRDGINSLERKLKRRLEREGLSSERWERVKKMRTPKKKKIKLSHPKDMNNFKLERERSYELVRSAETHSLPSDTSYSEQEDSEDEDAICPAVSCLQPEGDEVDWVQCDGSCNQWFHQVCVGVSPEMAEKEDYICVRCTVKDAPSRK

On to `CC(C)c1c(O)nc(-n2ccnc2)nc1-c1cnn(CCN2CCOCC2)c1` [Example 68, 2-(1H-Imidazol-1-yl)-6-{1-[2-(morpholin-4-yl)ethyl]-1H-pyrazol-4-yl}-5-(propan-2-yl)pyrimidin-4-ol], for which the IC50 against KDM5B turned out to be 21 nM; against KDM4C, 2450 nM.

For the compound `CC(C)c1c(O)nc(-n2ccnc2)nc1-c1cccc(CO)c1` [Example 77, 6-[3-(Hydroxymethyl)-phenyl]-2-(1H-imidazol-1-yl)-5-(propan-2-yl)pyrimidin-4-ol], the IC50 at KDM5B worked out at 38 nM; on KDM4C, 2460 nM.

For the compound `CC(C)c1c(O)nc(-n2ccnc2)nc1OCCN1CCOCC1` [Example 123, 2-(1H-Imidazol-1-yl)-6-[2-(morpholin-4-yl)ethoxy]-5-(propan-2-yl)pyrimidin-4-ol], the IC50 against KDM5B was found to be 9 nM; against KDM4C it was 1590 nM.

On to `CC(C)c1c(O)nc(-n2ccnc2)nc1-c1ccc(C(N)=O)nc1` [Example 9, 5-(6-hydroxy-2-(1H-imidazol-1-yl)-5-isopropylpyrimidin-4-yl)picolinamide], for which the IC50 on KDM5B (setting [1]) is 13 nM; on KDM4C, 2390 nM.

Turning to `Cc1ccc(-c2nc(-n3ccnc3)nc(O)c2C(C)C)cc1N` [Example 54, 6-(3-Amino-4-methylphenyl)-2-(1H-imidazol-1-yl)-5-(propan-2-yl)pyrimidin-4-ol], the IC50 at KDM5B is 15 nM; against KDM4C, 896 nM.

As for `CC(C)c1c(O)nc(-n2ccnc2)nc1-c1cnn(C2CCC2)c1` [Example 49, 6-(1-Cyclobutyl-1H-pyrazol-4-yl)-2-(1H 1H-imidazol-1-yl)-5-(propan-2-yl)pyrimidin-4-ol], the IC50 against KDM5B stood at 13 nM; at KDM4C, 716 nM.

With `CC(C)c1c(O)nc(-n2ccnc2)nc1-c1cccc(CN)c1` [Example 41, 6-[3-(Aminomethyl)phenyl]-2-(1H-imidazol-1-yl)-5-(propan-2-yl)pyrimidin-4-ol], the IC50 at KDM5B (setting [1]) is 3 nM; at KDM4C, 281 nM.

As for `CCCCCCOc1nc(-n2ccnc2)nc(O)c1C(C)C` [Example 140, 6-(Hexyloxy)-2-(1H-imidazol-1-yl)-5-(propan-2-yl)pyrimidin-4-ol], the IC50 at KDM5B (setting [1]) is 341 nM; against KDM4C, 50000 nM.

Take `CC(C)c1c(O)nc(-n2ccnc2)nc1CCc1cccnc1` [Example 10b, 2-(1H-imidazol-1-yl)-5-(propan-2-yl)-6-[2-(pyridin-3-yl)ethyl]pyrimidin-4-ol]: the half-maximal inhibitory concentration (IC50) worked out at 11 nM at KDM5B and 1490 nM on KDM4C.

In the case of `Cc1cn(-c2nc(O)c(C(C)C)c(OCc3cccnc3)n2)cn1` [Example 151, 2-(4-Methyl-1H-imidazol-1-yl)-5-(propan-2-yl)-6-(pyridin-3-ylmethoxy)-pyrimidin-4-ol], the values for the IC50 on KDM5B (setting [1]) and against KDM4C were 583 nM and 8780 nM, respectively.

With `Cc1nc(-c2scnc2C(=O)NCc2ccccc2)nc(O)c1C(C)C` [Example 150, N-benzyl-5-[6-methyl-4-oxo-5-(propan-2-yl)-1,4-dihydropyrimidin-2-yl]-1,3-thiazole-4-carboxamide], the IC50 turned out to be 1120 nM at KDM5B and 16900 nM against KDM4C.

Consider `CCc1c(C)nc(-c2cncs2)nc1O` [Example 156, 5-Ethyl-6-methyl-2-(1,3-thiazol-5-yl)-pyrimidin-4-ol], for which the IC50 on KDM5B amounted to 660 nM; against KDM4C, 8060 nM.

For `CC(C)c1c(O)nc(-c2cncs2)nc1-c1cnn(C(C)C)c1` [Example 152, 5-(Propan-2-yl)-6-[1-(propan-2-yl)-1H-pyrazol-4-yl]-2-(1,3-thiazol-5-yl)pyrimidin-4-ol], the figures for the IC50 against KDM5B and against KDM4C were 151 nM and 7240 nM, respectively.

Turning to `COCCn1cc(-c2nc(-n3ccnc3)nc(O)c2C(C)C)cn1` [Example 51, 2-(1H-Imidazol-1-yl)-6-[1-(2-methoxyethyl)-1H-pyrazol-4-yl]-5-(propan-2-yl)pyrimidin-4-ol], the figures for the IC50 against KDM5B and against KDM4C were 14 nM and 1960 nM, respectively.

As for `CC(C)c1c(O)nc(-n2ccnc2)nc1OCCN1CCCCC1` [Example 130, 2-(1H-Imidazol-1-yl)-6-[2-(piperidin-1-yl)ethoxy]-5-(propan-2-yl)pyrimidin-4-ol], the IC50 on KDM5B worked out at 27 nM; at KDM4C, 3670 nM.

Regarding `CNCCN(C)C(=O)Cn1cc(-c2nc(-n3ccnc3)nc(O)c2C(C)C)cn1` [Example 95, 2-{4-[6-Hydroxy-2-(1H-imidazol-1-yl)-5-(propan-2-yl)pyrimidin-4-yl]-1H-pyrazol-1-yl}-N-methyl-N-[2-(methylamino)ethyl]-acetamide], the IC50 worked out at 6 nM against KDM5B and 278 nM at KDM4C.

Regarding `CC(C)c1c(O)nc(-n2ccnc2)nc1-c1cccc(C#N)c1` [Example 79, 3-[6-Hydroxy-2-(1H-imidazol-1-yl)-5-(propan-2-yl)pyrimidin-4-yl]benzonitrile], the half-inhibitory concentration (IC50) on KDM5B worked out at 40 nM; against KDM4C, 5190 nM.

Turning to `CC(C)c1c(O)nc(-n2ccnc2)nc1-c1cnn(CCO)c1` [Example 80, 6-[1-(2-Hydroxyethyl)-1H-pyrazol-4-yl]-2-(1H-imidazol-1-yl)-5-(propan-2-yl)-pyrimidin-4-ol], the half-maximal inhibitory concentration (IC50) against KDM5B was determined as 51 nM; against KDM4C, 3490 nM.

For the compound `CC(C)c1c(O)nc(-n2ccnc2)nc1-c1cnn(CC(=O)N2CCC(C#N)CC2)c1` [Example 110, 1-(2-{4-[6-Hydroxy-2-(1H-imidazol-1-yl)-5-(propan-2-yl)pyrimidin-4-yl]-1H-pyrazol-1-yl}acetyl)-piperidine-4-carbonitrile], the IC50 turned out to be 21 nM on KDM5B and 1250 nM at KDM4C.

Consider `CC(C)c1c(O)nc(-n2ccnc2)nc1-c1cnn(C(C)(C)C)c1` [Example 75, 6-(1-tert-Butyl-1H-pyrazol-4-yl)-2-(1H-imidazol-1-yl)-5-(propan-2-yl)pyrimidin-4-ol], for which the IC50 on KDM5B (setting [1]) stood at 27 nM; against KDM4C it was 1240 nM.

Regarding `Cc1noc(C)c1-c1nc(-n2ccnc2)nc(O)c1C(C)C` [Example 84, 6-(Dimethyl-1,2-oxazol-4-yl)-2-(1H-imidazol-1-yl)-5-(propan-2-yl)pyrimidin-4-ol], the IC50 worked out at 190 nM against KDM5B and 10700 nM against KDM4C.

Regarding `CC(C)c1c(O)nc(-n2ccnc2)nc1OCC(=O)N1CCOCC1` [Example 142, 2-{[6-Hydroxy-2-(1H-imidazol-1-yl)-5-(propan-2-yl)pyrimidin-4-yl]oxy}-1-(morpholin-4-yl)ethan-1-one], the IC50 against KDM5B was 35 nM; against KDM4C, 2130 nM.

Consider `CC(C)CCn1cc(-c2nc(-n3ccnc3)nc(O)c2C(C)C)cn1` [Example 73, 2-(1H-Imidazol-1-yl)-6-[1-(3-methylbutyl)-1H-pyrazol-4-yl]-5-(propan-2-yl)pyrimidin-4-ol], for which the IC50 against KDM5B was determined as 25 nM; against KDM4C it was 1350 nM.

Regarding `CC(=O)NCc1ccc(-c2nc(-n3ccnc3)nc(O)c2C(C)C)cc1` [Example 43, N-({4-[6-Hydroxy-2-(1H-imidazol-1-yl)-5-(propan-2-yl)pyrimidin-4-yl]phenyl}-methyl)acetamide], the IC50 stood at 9 nM on KDM5B (setting [1]) and 1110 nM at KDM4C.

For the compound `Cc1nc(-c2ccncc2)nc(O)c1C(C)C` [Example 149, 6-Methyl-5-(propan-2-yl)-2-(pyridin-4-yl)pyrimidin-4-ol], the IC50 came out at 3320 nM at KDM5B and 50000 nM against KDM4C.

On to `CC(C)c1c(O)nc(-n2ccnc2)nc1OCC1(N)CC1` [Example 128, 6-[(1-Aminocyclopropyl)-methoxy]-2-(1H-imidazol-1-yl)-5-(propan-2-yl)pyrimidin-4-ol], for which the half-maximal inhibitory concentration (IC50) at KDM5B (setting [1]) was determined as 19 nM; against KDM4C it was 1400 nM.

Take `CNC(=O)Cn1cc(-c2nc(-n3ccnc3)nc(O)c2C(C)C)cn1` [Example 113, 2-{4-[6-Hydroxy-2-(1H-imidazol-1-yl)-5-(propan-2-yl)pyrimidin-4-yl]-1H-pyrazol-1-yl)-N-methyl-acetamide]: the IC50 against KDM5B came out at 24 nM; at KDM4C, 2090 nM.

The record behind these values is patent publication US20190135793A1, “HETEROCYCLIC INHIBITORS OF KDM5 FOR THE TREATMENT OF DISEASE” (Board of Regents, The University of Texas System, priority 2017, published 2019).
